This passage reports IC50 results from ChEMBL document CHEMBL4364251, “Design, synthesis and biological evaluation of new quinoline derivatives as potential antitumor agents” (Eur J Med Chem, 2019).

What all share (format): functional, cell-based
Assay [1] has as its system RKO. The experiment in a line: Antiproliferative activity against human RKO cells incubated for 48 hrs by MTT assay.
In assay [2] the test system is A2780. The experiment in a line: Antiproliferative activity against human A2780 cells incubated for 48 hrs by MTT assay. As to conditions: A2780, 48 h.
The test system of assay [3] is BGC-823. The experiment in a line: Antiproliferative activity against human BGC823 cells incubated for 48 hrs by MTT assay. As to conditions: BGC-823, 48 h.
Assay [4] has as its system HeLa. The experiment in a line: Antiproliferative activity against human HeLa cells incubated for 48 hrs by MTT assay.
Assay [5] relates to A549. The experiment in a line: Antiproliferative activity against human A549 cells incubated for 48 hrs by MTT assay. Particulars: A549, 48 h.
The subject of assay [6] is NCI-H1650. The experiment in a line: Antiproliferative activity against human NCI-H1650 cells incubated for 48 hrs by MTT assay. As to conditions: NCI-H1650, 48 h.
Assay [7] relates to HCT-116. The experiment in a line: Antiproliferative activity against human HCT116 cells incubated for 48 hrs by MTT assay. As to conditions: HCT-116, 48 h.

Consider `O=[N+]([O-])c1cccc(Nc2ccnc3cc(F)ccc23)c1`, for which the IC50 in assay [1], in assay [2], in assay [3], in assay [4], in assay [5] and in assay [6] was more than 10 µM each time. In assay [7], this molecule yielded an IC50 of more than 10 µM.

As to `COc1cccc(Nc2ccnc3cc(OC)ccc23)c1`, the IC50 in assay [1], in assay [2], in assay [3], in assay [4], in assay [5] and in assay [6] was more than 10 µM each time. In assay [7], this molecule gave an IC50 of more than 10 µM.

Consider `CCCCOc1ccc2c(Nc3cccc(F)c3)ccnc2c1`, for which the IC50 in assay [1] was more than 10 µM; in assay [2], 8.2 µM; in assay [3], 9.42 µM; in assay [4], 1.43 µM; in assay [5], more than 10 µM; in assay [6] it was more than 10 µM. This molecule had a concentration for half-maximal inhibition (IC50) in assay [7] of more than 10 µM.

For `CC(C)Oc1ccc2c(Nc3cccc([N+](=O)[O-])c3)ccnc2c1`, the half-inhibitory concentration (IC50) in assay [1] was more than 10 µM; in assay [2], 1.47 µM; in assay [3] it was 8.39 µM; in assay [4], 0.52 µM; in assay [5] it was more than 10 µM; in assay [6], more than 10 µM. This molecule had an IC50 in assay [7] of more than 10 µM.

As for `O=[N+]([O-])c1cccc(Nc2ccnc3cc(OCCCc4ccccc4)ccc23)c1`, the IC50 in assay [1] stood at 8.29 µM; in assay [2], 4.46 µM; in assay [3] it was 8.32 µM; in assay [4], 4.13 µM; in assay [5], 5.09 µM; in assay [6], 6.01 µM. In assay [7], this molecule returned an IC50 of 7.46 µM.

As to `CCCCOc1ccc2c(Nc3cccc(Br)c3)ccnc2c1`, the IC50 in assay [1] is more than 10 µM; in assay [2] it was more than 10 µM; in assay [3], more than 10 µM; in assay [4], 0.84 µM; in assay [5], more than 10 µM; in assay [6], more than 10 µM. In addition, the IC50 in assay [7] is more than 10 µM.

With `Fc1cccc(Nc2ccnc3cc(Cl)ccc23)c1`, the 50% inhibitory concentration (IC50) in assay [1], in assay [2], in assay [3], in assay [4], in assay [5] and in assay [6] was more than 10 µM each time. For the same molecule, in assay [7], the IC50 is more than 10 µM.

Consider `Brc1cccc(Nc2ccnc3cc(Br)ccc23)c1`, for which the IC50 in assay [1], in assay [2], in assay [3], in assay [4], in assay [5] and in assay [6] was more than 10 µM each time. This molecule also showed an IC50 in assay [7] of more than 10 µM.

With `C=CCOc1ccc2c(Nc3cccc(F)c3)ccnc2c1`, the IC50 in assay [1] was more than 10 µM; in assay [2] it was 1.19 µM; in assay [3] it was more than 10 µM; in assay [4], 0.31 µM; in assay [5], more than 10 µM; in assay [6], more than 10 µM. This molecule also gave an IC50 in assay [7] of more than 10 µM.

For `CCOc1ccc2c(Nc3cccc([N+](=O)[O-])c3)ccnc2c1`, the IC50 in assay [1] was more than 10 µM; in assay [2], more than 10 µM; in assay [3], more than 10 µM; in assay [4], 3.42 µM; in assay [5], more than 10 µM; in assay [6], more than 10 µM. Moreover, in assay [7], the IC50 is more than 10 µM.

Take `Fc1ccc2c(Nc3cccc(Br)c3)ccnc2c1`: the IC50 in assay [1], in assay [2], in assay [3], in assay [4], in assay [5] and in assay [6] was more than 10 µM in each case. The IC50 in assay [7] was more than 10 µM.

As for `O=[N+]([O-])c1cccc(Nc2ccnc3cc(Br)ccc23)c1`, the IC50 in assay [1], in assay [2], in assay [3], in assay [4], in assay [5] and in assay [6] was more than 10 µM in each case. The same molecule yielded an IC50 in assay [7] of more than 10 µM.

With `COc1cccc(Nc2ccnc3cc(F)ccc23)c1`, the IC50 in assay [1], in assay [2], in assay [3], in assay [4], in assay [5] and in assay [6] was more than 10 µM each time. This molecule also gave an IC50 in assay [7] of more than 10 µM.
